Measured values: ChEMBL document CHEMBL1201862, “PubChem BioAssay data set” (2004)
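Cells were grown in 96-well plates and exposed to each compound for 48 hours at five concentrations; endpoints were interpolated linearly between bracketing concentrations, or set to the highest concentration if not reached. Abbreviation: GI50, concentration required for 50% inhibition of growth.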 Activity calls are given as the source filed them. Cut-off read from the data, not from the text of the source: active = GI50 up to about 1.1 µM and inactive = higher.

Columns and labels:
Assay in all cases: NCI tumour cell line growth inhibition, 48 h
[1] = system: EKVX
[2] = system: HCC 2998
[3] = system: HCT-116
[4] = system: IGROV-1
[5] = system: MOLT-4
[6] = system: NCI-H226
[7] = system: OVCAR-3
[8] = system: SF-268
[9] = system: SK-MEL-5
[10] = system: SNB-75
[11] = system: UACC-257
[12] = system: UO-31
[13] = system: ACHN
[14] = system: BT-549
[15] = system: MCF7
[16] = system: MDA-MB-435
[17] = system: NCI/ADR-RES
[18] = system: PC-3
[19] = system: A498

Measured: GI50

C/C(CC(=O)Nc1cccc([N+](=O)[O-])c1)=N\NC(=O)C[n+]1ccccc1
inactive: [1] > 100 µM | [2] > 100 µM | [3] > 100 µM | [4] > 100 µM | [5] > 100 µM | [6] > 100 µM | [7] > 100 µM | [8] > 100 µM | [9] > 100 µM | [10] > 100 µM | [11] > 100 µM | [12] > 100 µM

CCN(CC)CC(=O)NC1c2ccccc2Oc2ccccc21
inactive: [1] > 100 µM | [2] > 100 µM | [3] > 100 µM | [4] > 100 µM | [5] > 100 µM | [6] > 100 µM | [8] > 100 µM | [9] > 100 µM | [10] > 100 µM | [11] > 100 µM | [12] > 100 µM

COc1ccc(CNc2nc3cc(C(F)(F)F)ccc3nc2-c2ccccc2)cc1OC
inactive: [13] 23.8 µM | [14] 47.5 µM | [1] 18.7 µM | [2] 22.6 µM | [3] 30.3 µM | [4] 66.7 µM | [15] 16.1 µM | [16] 25.5 µM | [5] 25.5 µM | [17] 54.5 µM | [7] 96.8 µM | [18] 28.2 µM | [8] 62.8 µM | [9] 17.9 µM | [10] 37.3 µM | [11] 28.4 µM | [12] 23.7 µM

CN(C(=O)c1ccc(Cl)s1)C(=S)N(C)C(=O)c1ccc(Cl)s1
inactive: [19] > 10 µM | [13] > 10 µM | [14] > 10 µM | [1] > 10 µM | [2] > 10 µM | [3] > 10 µM | [4] > 10 µM | [15] > 10 µM | [5] > 10 µM | [6] > 10 µM | [17] > 10 µM | [7] > 10 µM | [18] > 10 µM | [8] > 10 µM | [9] > 10 µM | [10] > 10 µM | [11] > 10 µM | [12] > 10 µM

O=c1[nH]nc(-c2ccccc2)n1/N=C/c1c(O)ccc2ccccc12
inactive: [13] 26.3 µM | [14] 45.7 µM | [1] > 100 µM | [2] 28.4 µM | [3] 30 µM | [4] > 100 µM | [15] 59.7 µM | [16] 56.5 µM | [5] > 100 µM | [17] 30.3 µM | [7] 17.3 µM | [18] 37.8 µM | [8] 32.7 µM | [9] 30.2 µM | [10] 31.7 µM | [11] 68.5 µM | [12] 36 µM

COc1ccc(-n2/c(=N/C(=S)N(C)C)ss/c2=N\C(=S)N(C)C)cc1
inactive: [19] > 100 µM | [13] > 100 µM | [1] > 100 µM | [2] > 100 µM | [3] 13 µM | [4] 14.2 µM | [5] 79.4 µM | [6] > 100 µM | [7] 19.8 µM | [8] 77.1 µM | [10] 22.8 µM | [11] > 100 µM | [12] > 100 µM

C1CC[C@H]2SSC3CCCC[C@H]3SSC2C1 (stereo partly specified)
inactive: [14] > 100 µM | [1] > 100 µM | [2] > 100 µM | [3] > 100 µM | [4] > 100 µM | [15] > 100 µM | [16] > 100 µM | [5] > 100 µM | [17] > 100 µM | [7] > 100 µM | [18] > 100 µM | [8] > 100 µM | [9] > 100 µM | [10] > 100 µM | [11] > 100 µM | [12] > 100 µM

CN1C(c2ccccc2)CC(C)(O)CC1c1ccccc1 (stereo unspecified)
inactive: [19] > 100 µM | [13] > 100 µM | [1] > 100 µM | [2] > 100 µM | [3] > 100 µM | [4] > 100 µM | [5] > 100 µM | [6] > 100 µM | [7] > 100 µM | [8] > 100 µM | [9] > 100 µM | [10] > 100 µM | [11] > 100 µM | [12] > 100 µM

O=C(Nc1ccccc1)N(C1=NCC(CI)S1)c1ccc(F)c(F)c1 (stereo unspecified)
inactive: [19] 24.9 µM | [13] 49.4 µM | [1] > 100 µM | [2] 55.8 µM | [3] 29.1 µM | [4] 38.8 µM | [15] 22.4 µM | [5] 19.5 µM | [17] 30.8 µM | [7] 28.3 µM | [18] 25.4 µM | [8] 21.3 µM | [9] 17.3 µM | [10] 12.6 µM | [11] 31 µM | [12] 44.7 µM

COc1cc2nc(Nc3cccc(Br)c3)nc(Nc3cccc(Br)c3)c2cc1OC
inactive: [13] 16 µM | [14] 17 µM | [1] 19.1 µM | [2] 23.6 µM | [3] 17.6 µM | [4] 15.1 µM | [15] 16.9 µM | [16] 19.7 µM | [5] 20.4 µM | [17] 19.6 µM | [7] 16.6 µM | [18] 20.4 µM | [8] 16.2 µM | [9] 17 µM | [10] 17.3 µM | [11] > 10 µM | [12] 16 µM

Cc1ccc(S(=O)(=O)NC(=O)NCCc2c[nH]cn2)cc1
inactive: [19] > 100 µM | [13] > 100 µM | [1] > 100 µM | [2] > 100 µM | [3] > 100 µM | [4] > 100 µM | [15] > 100 µM | [16] > 100 µM | [5] > 100 µM | [6] > 100 µM | [17] > 100 µM | [7] > 100 µM | [18] > 100 µM | [8] > 100 µM | [9] > 100 µM | [10] > 100 µM | [12] > 100 µM

CCCCCCCCCCCCCCCCOCC(COP(=O)(O)OCC1OC(n2cc(CC)c(=O)[nH]c2=O)CC1O)OC(=O)CCCCCCCCCCCCCCC (stereo unspecified)
inactive: [19] > 100 µM | [13] > 100 µM | [1] > 100 µM | [2] > 100 µM | [3] > 100 µM | [4] > 100 µM | [15] > 100 µM | [16] > 100 µM | [5] > 100 µM | [6] > 100 µM | [17] > 100 µM | [7] > 100 µM | [18] > 100 µM | [8] > 100 µM | [10] > 100 µM | [11] > 100 µM | [12] > 100 µM

COc1ccc(-c2cc(-c3cc4cc(Br)ccc4nc3Cl)c(C#N)c(N)n2)cc1
inactive: [14] > 12.5 µM | [1] > 12.5 µM | [3] > 12.5 µM | [4] > 12.5 µM | [15] > 12.5 µM | [16] > 12.5 µM | [5] 9.66 µM | [6] > 12.5 µM | [17] > 12.5 µM | [7] > 12.5 µM | [18] > 12.5 µM | [8] > 12.5 µM | [9] > 12.5 µM | [10] > 12.5 µM | [12] > 12.5 µM

NNC(=O)CCC(=O)Nc1ccc(Cl)cc1Cl
inactive: [19] > 100 µM | [13] > 100 µM | [2] > 100 µM | [3] > 100 µM | [4] > 100 µM | [5] > 100 µM | [6] > 100 µM | [7] > 100 µM | [8] > 100 µM | [9] > 100 µM | [10] > 100 µM | [11] > 100 µM | [12] > 100 µM

O=c1[nH]n(Cc2ccccn2)c2ccc([N+](=O)[O-])cc12
inactive: [19] > 100 µM | [13] > 100 µM | [1] > 100 µM | [2] > 100 µM | [3] > 100 µM | [4] > 100 µM | [5] > 100 µM | [6] > 100 µM | [17] > 100 µM | [7] > 100 µM | [18] > 100 µM | [8] > 100 µM | [9] > 100 µM | [10] > 100 µM | [11] > 100 µM | [12] > 100 µM

N#CCCN(c1ccc(/C=C2\N=C(Cc3ccccc3)OC2=O)cc1)S(=O)(=O)c1ccccc1
inactive: [19] > 100 µM | [13] > 100 µM | [1] > 100 µM | [2] > 100 µM | [3] > 100 µM | [4] > 100 µM | [5] > 100 µM | [6] > 100 µM | [7] > 100 µM | [8] > 100 µM | [9] > 100 µM | [10] > 100 µM | [11] > 100 µM | [12] > 100 µM

O=C(CNc1ccccc1Cl)Nn1c(-c2ccccc2)nc2ccccc2c1=O
inactive: [19] 49.8 µM | [13] 37.4 µM | [14] 12.8 µM | [1] 18.6 µM | [2] 19.5 µM | [3] 25.2 µM | [4] 23.7 µM | [15] 14.8 µM | [16] 18.5 µM | [5] 13.2 µM | [6] 28.5 µM | [7] 23.1 µM | [18] 20.7 µM | [8] 30.1 µM | [9] 10.2 µM | [10] 16.8 µM | [11] 50.6 µM | [12] 47.1 µM
